Numbered stars: 1 amine (or outer) side, 2 acyl side, 3 side chain; on linkers, the order of the positions; unused ones are H or OH. Side chains are listed from the residue outwards. Peptide text beside a SMILES is read from it. * marks the point of attachment. C20 diacid = O=C(O)CCCCCCCCCCCCCCCCCCC(=O)*; C18 diacid = O=C(O)CCCCCCCCCCCCCCCCC(=O)*; γGlu = O=C(O)[C@H](CCC(=O)[*:2])N[*:1]
Legend:
Calcitonin receptor [1] = molecular target: T1, Calcitonin receptor (Homo sapiens, UniProt P30988); assay: Agonist activity at human calcitonin receptor expressed in BHK570 cells assessed as increase in intracellular cAMP concentration incubated for 3 hrs in absence of albumin by CRE luciferase reporter gene assay; type: functional, cell-based
T1 sequence (P30988 whole entry): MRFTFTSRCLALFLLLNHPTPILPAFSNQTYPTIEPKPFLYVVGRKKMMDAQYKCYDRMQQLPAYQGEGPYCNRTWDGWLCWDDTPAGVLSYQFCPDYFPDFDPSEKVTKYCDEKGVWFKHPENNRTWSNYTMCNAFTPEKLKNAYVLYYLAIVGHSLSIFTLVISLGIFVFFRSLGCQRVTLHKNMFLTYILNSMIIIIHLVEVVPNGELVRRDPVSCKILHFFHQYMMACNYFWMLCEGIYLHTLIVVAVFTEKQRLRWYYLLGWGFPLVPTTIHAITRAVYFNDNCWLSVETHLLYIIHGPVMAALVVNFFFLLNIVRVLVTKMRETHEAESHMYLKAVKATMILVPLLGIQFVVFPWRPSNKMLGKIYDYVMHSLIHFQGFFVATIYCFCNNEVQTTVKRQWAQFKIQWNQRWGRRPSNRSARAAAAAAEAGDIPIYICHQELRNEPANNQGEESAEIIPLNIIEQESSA

Calcitonin receptor [2] = molecular target: T1, Calcitonin receptor; assay: Agonist activity at human calcitonin receptor expressed in BHK570 cells assessed as increase in intracellular cAMP concentration incubated for 3 hrs in presence of 10% FBS by CRE luciferase reporter gene assay; type: functional, cell-based
[3] = molecular target: T2, Amylin receptor AMY3; CALCR/RAMP3 (Homo sapiens, UniProt O60896+P30988); assay: Agonist activity at human amylin receptor expressed in BHK570 cells co-expressing RAMP3 assessed as increase in intracellular cAMP concentration incubated for 3 hrs in presence of 10% FBS by CRE luciferase reporter gene assay; type: functional, cell-based
T2 sequence (P30988 whole entry): T1 sequence (P30988 whole entry)
T2 sequence (O60896 whole entry): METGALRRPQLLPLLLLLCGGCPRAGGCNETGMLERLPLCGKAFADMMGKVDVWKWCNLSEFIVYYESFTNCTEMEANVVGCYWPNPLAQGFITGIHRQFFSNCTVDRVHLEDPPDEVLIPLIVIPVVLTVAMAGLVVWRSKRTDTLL

[4] = molecular target: T2, Amylin receptor AMY3; CALCR/RAMP3; assay: Agonist activity at human amylin receptor expressed in BHK570 cells co-expressing RAMP3 assessed as increase in intracellular cAMP concentration incubated for 3 hrs in absence of albumin by CRE luciferase reporter gene assay; type: functional, cell-based
Calcitonin receptor [5] = molecular target: T1, Calcitonin receptor; assay: Displacement of [125I]-labeled human calcitonin from human calcitonin receptor expressed in BHK tkts13 cell membranes incubated for 1 hr by scintillation proximity assay
[6] = Solubility in 100 mM bistrispropane buffer at pH 8.0 incubated for 18 hrs by UPLC analysis; type: physicochemical
[7] = molecular target: T3, Amylin receptor AMY3; CALCR/RAMP3 (Rattus norvegicus, UniProt P32214+Q9JJ73); assay: Displacement of [125I]-labeled rat amylin from rat amylin receptor expressed in BHK tkts13 cell membranes co-expressing RAMP3 incubated for 120 mins by scintillation proximity assay
T3 sequence (P32214 whole entry): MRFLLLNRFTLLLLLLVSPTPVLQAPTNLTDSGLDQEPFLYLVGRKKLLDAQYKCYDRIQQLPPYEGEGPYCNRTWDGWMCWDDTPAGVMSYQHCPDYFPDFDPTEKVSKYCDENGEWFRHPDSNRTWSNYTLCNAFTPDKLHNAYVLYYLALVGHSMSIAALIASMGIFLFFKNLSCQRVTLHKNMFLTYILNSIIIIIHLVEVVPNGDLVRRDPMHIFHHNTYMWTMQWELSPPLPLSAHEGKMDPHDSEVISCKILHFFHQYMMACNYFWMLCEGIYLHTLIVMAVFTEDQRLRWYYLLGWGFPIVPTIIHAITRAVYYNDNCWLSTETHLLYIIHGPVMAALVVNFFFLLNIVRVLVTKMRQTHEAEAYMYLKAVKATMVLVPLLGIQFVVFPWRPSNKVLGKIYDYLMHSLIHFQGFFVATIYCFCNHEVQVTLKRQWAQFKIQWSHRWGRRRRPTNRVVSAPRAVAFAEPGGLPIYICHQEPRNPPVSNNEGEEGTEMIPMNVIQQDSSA
T3 sequence (Q9JJ73 whole entry): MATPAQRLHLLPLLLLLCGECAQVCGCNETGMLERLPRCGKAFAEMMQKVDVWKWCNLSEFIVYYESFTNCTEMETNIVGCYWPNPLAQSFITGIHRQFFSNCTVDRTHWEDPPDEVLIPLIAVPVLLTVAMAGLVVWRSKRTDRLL

[8] = Solubility in 100 mM bistrispropane buffer at pH 7.5 incubated for 18 hrs by UPLC analysis; type: physicochemical
[9] = Solubility in 100 mM bistrispropane buffer at pH 7.0 incubated for 18 hrs by UPLC analysis; type: physicochemical
[10] = Solubility in 100 mM glycylglycine buffer at pH 4.0 incubated for 18 hrs by UPLC analysis; type: physicochemical
[11] = Solubility in 100 mM bistrispropane buffer at pH 6.0 incubated for 18 hrs by UPLC analysis; type: physicochemical
[12] = Solubility in 100 mM bistrispropane buffer at pH 6.5 incubated for 18 hrs by UPLC analysis; type: physicochemical
[13] = Solubility in 100 mM glycylglycine buffer at pH 5.0 incubated for 18 hrs by UPLC analysis; type: physicochemical
[14] = molecular target: T2, Amylin receptor AMY3; CALCR/RAMP3; assay: Displacement of [125I]-labeled rat amylin from human amylin receptor expressed in BHK570 cell membranes co-expressing RAMP3 incubated for 120 mins by scintillation proximity assay
[15] = Solubility in 100 mM glycylglycine buffer at pH 3.0 incubated for 18 hrs by UPLC analysis; type: physicochemical
[16] = Stability in pH 7.5 buffer assessed as lag time for fibril formation at 1 uM by Thioflavin T based fluorescence assay; type: physicochemical; conditions: pH 7.5, 1 µM
Rattus norvegicus [17] = assay: Reduction in food intake in Sprague-Dawley rat at 3 nmol/kg measured 0 to 24 hrs post dose relative to control; type: functional; design: scale not given: the % may be the effect or the level left
[18] = Stability in pH 7.5 buffer assessed as compound recovery at 1 uM by Thioflavin T based fluorescence assay; type: physicochemical; conditions: read-out: Drug recovery
Rattus norvegicus [19] = assay: Reduction in food intake in Sprague-Dawley rat at 3 nmol/kg measured 24 to 48 hrs post dose relative to control; type: functional; design: scale not given: the % may be the effect or the level left

SMILES	EC50 (Calcitonin receptor [1]) [pM]	EC50 (Calcitonin receptor [2]) [pM]	EC50 [3] [pM]	EC50 [4] [pM]	IC50 (Calcitonin receptor [5]) [pM]	solubility at 18 h [6] [µM]	IC50 [7] [pM]	solubility at 18 h [8] [µM]	solubility at 18 h [9] [µM]	solubility at 18 h [10] [µM]	solubility at 18 h [11] [µM]	solubility at 18 h [12] [µM]	solubility at 18 h [13] [µM]	IC50 [14] [pM]	solubility at 18 h [15] [µM]	Time [16] [h]	Activity (Rattus norvegicus [17]) [%]	remaining at 1 µM [18] [%]	Activity (Rattus norvegicus [19]) [%]
CC(=O)N[C@@H](C)C(=O)N[C@@H](CO)C(=O)N[C@@H](CCC(=O)O)C(=O)N[C@@H](CC(C)C)C(=O)N[C@@H](CO)C(=O)N[C@H](C(=O)N[C@@H](C)C(=O)N[C@@H](C)C(=O)N[C@@H](CC(C)C)C(=O)NCC(=O)N[C@@H](CCCNC(=N)N)C(=O)N[C@@H](CC(C)C)C(=O)N[C@@H](CO)C(=O)N[C@@H](C)C(=O)N[C@@H](CCCCNC(=O)CC[C@H](NC(=O)CCCCCCCCCCCCCCCCCCC(=O)O)C(=O)O)C(=O)N[C@@H](CC(C)C)C(=O)N[C@@H](Cc1cnc[nH]1)C(=O)N[C@@H](CCC(=O)O)C(=O)N[C@@H](CC(C)C)C(=O)N[C@@H](C)C(=O)N[C@H](C(=O)N[C@@H](CC(C)C)C(=O)N1CCC[C@H]1C(=O)N[C@@H](CCCNC(=N)N)C(=O)N[C@H](C(=O)N[C@@H](CCC(=O)O)C(=O)N[C@H](C(=O)NCC(=O)N[C@@H](CO)C(=O)NCC(=O)N[C@@H](CO)C(=O)N1CCC[C@H]1C(N)=O)[C@@H](C)O)[C@@H](C)O)[C@@H](C)O)[C@@H](C)O (Ac-ASELSTAALGRLSAK([γGlu-C20 diacid])LHELATLPRTETGSGSP-NH2)	28	44	100	21	46	≥ 200	115	≥ 200	≥ 200	≥ 200	≥ 200	≥ 200	≥ 200	74	≥ 200				
CC(C)C[C@H](NC(=O)CNC(=O)[C@H](CO)NC(=O)[C@H](C)NC(=O)CC[C@H](NC(=O)CCCCCCCCCCCCCCCCC(=O)O)C(=O)O)C(=O)N[C@@H](CO)C(=O)N[C@H](C(=O)N[C@@H](C)C(=O)N[C@@H](C)C(=O)N[C@@H](CC(C)C)C(=O)NCC(=O)N[C@@H](CCCNC(=N)N)C(=O)N[C@@H](CC(C)C)C(=O)N[C@@H](CO)C(=O)N[C@@H](CCC(N)=O)C(=O)N[C@@H](CCC(=O)O)C(=O)N[C@@H](CC(C)C)C(=O)N[C@@H](Cc1cnc[nH]1)C(=O)N[C@@H](CCC(=O)O)C(=O)N[C@@H](CC(C)C)C(=O)N[C@@H](CCC(N)=O)C(=O)N[C@H](C(=O)N[C@@H](Cc1ccc(O)cc1)C(=O)N1CCC[C@H]1C(=O)N[C@@H](CCCNC(=N)N)C(=O)N[C@H](C(=O)N[C@@H](CCC(=O)O)C(=O)N[C@H](C(=O)NCC(=O)N[C@@H](CO)C(=O)NCC(=O)N[C@H](C(=O)N[C@@H](Cc1ccc(O)cc1)C(N)=O)[C@@H](C)O)[C@@H](C)O)[C@@H](C)O)[C@@H](C)O)[C@@H](C)O ({C18 diacid-γGlu}-ASGLSTAALGRLSQELHELQTYPRTETGSGTY-NH2)		53	70		57	≥ 200		≥ 200	≥ 200	≥ 200	≥ 200	≥ 200		122	≥ 200	> 45	44	100	8
